Holding throughout (type): in vivo
Conditions in all cases: Rate 1000 g/ha; evaluated after 13 days

For experiment [1], the system named is Abutilon threophrasti (ABUTH). Kind of experiment: B1a pre-emergence herbicidal activity. Here is the method: (§1) Seeds of a variety of test species were sown in standard soil in pots: Amaranthus retroflexus (AMARE), Setaria faberi (SETFA), Zea mays (ZEAMX), Abutilon threophrasti (ABUTH), Echinochloa crus-galli (ECHCG), Lolium perenne (LOLPE). After cultivation for one day (pre-emergence) under controlled conditions in a glasshouse (at 24/16° C., day/night; 14 hours light; 65% humidity), the plants were sprayed with an aqueous spray solution derived from the formulation of the technical active ingredient in acetone/water (50:50) solution containing 0.5% Tween 20 (polyoxyethelyene sorbitan monolaurate, CAS RN 9005-64-5). The test plants were then grown in a glasshouse under controlled conditions (at 24/16° C., day/night; 14 hours light; 65% humidity) and watered twice daily. After 13 days, the test was evaluated (5=total damage to plant; 0=no damage to plant). Results are shown below in Table 4

Experiment [2] relates to Echinochloa crus-galli (ECHCG). The experiment can be described thus: B1a pre-emergence herbicidal activity. As to the method:
as §1

Experiment [3] relates to Amaranthus retroflexus (AMARE). Kind of experiment: B1a pre-emergence herbicidal activity. As to the method:
as §1

Experiment [4] relates to Lolium perenne (LOLPE). The experiment can be described thus: B1a pre-emergence herbicidal activity. As to the method:
as §1

Experiment [5] relates to Setaria faberi (SETFA). The experiment can be described thus: B1a pre-emergence herbicidal activity. As to the method: as §1
For experiment [6], the system named is Zea mays (ZEAMX). Kind of experiment: B1a pre-emergence herbicidal activity. Here is the method: as §1
The subject of experiment [7] is Abutilon threophrasti (ABUTH). The experiment can be described thus: B2a post-emergence herbicidal activity. As to the method:
(§2) Seeds of a variety of test species were sown in standard soil in pots: Amaranthus retroflexus (AMARE), Setaria faberi (SETFA), Zea mays (ZEAMX), Abutilon threophrasti (ABUTH), Echinochloa crus-galli (ECHCG), Lolium perenne (LOLPE). After 8 days cultivation (post-emergence) under controlled conditions in a glasshouse (at 24/16° C., day/night; 14 hours light; 65% humidity), the plants were sprayed with an aqueous spray solution derived from the formulation of the technical active ingredient in acetone/I water (50:50) solution containing 0.5% Tween 20 (polyoxyethelyene sorbitan monolaurate, CAS RN 9005-64-5). The test plants were then grown in a glasshouse under controlled conditions (at 24/16° C., day/night; 14 hours light; 65% humidity) and watered twice daily. After 13 days, the test was evaluated (5=total damage to plant; 0=no damage to plant).

For experiment [8], the system named is Echinochloa crus-galli (ECHCG). The experiment can be described thus: B2a post-emergence herbicidal activity. Here is the method: as §2
Experiment [9] concerns Amaranthus retroflexus (AMARE). Kind of experiment: B2a post-emergence herbicidal activity. As to the method: as §2
Experiment [10] concerns Lolium perenne (LOLPE). Kind of experiment: B2a post-emergence herbicidal activity. Here is the method:
as §2

The subject of experiment [11] is Setaria faberi (SETFA). The experiment can be described thus: B2a post-emergence herbicidal activity. Here is the method: as §2
Experiment [12] relates to Zea mays (ZEAMX). The experiment can be described thus: B2a post-emergence herbicidal activity. As to the method: as §2

This note sets out measurements from patent US10905123B2, “Herbicidal compounds” (Syngenta Participations AG, priority 2015, dated 2021).

The structures appear in SMILES notation.

For `CC(C)(C)OC(=O)Nc1cn(-c2cccnc2)nc1Cl` [Compound A57], in [1], the “Control of ABUTH after pre-emergence application (damage score 0-5)” value was 0. In addition, in experiment [2], the “Control of ECHCG after pre-emergence application (damage score 0-5)” value is reported as 0. The “Control of AMARE after pre-emergence application (damage score 0-5)” value in experiment [3] came out at 0. Further, in the experiment on Lolium perenne (LOLPE) [4], the “Control of LOLPE after pre-emergence application (damage score 0-5)” value is 0. The “Control of SETFA after pre-emergence application (damage score 0-5)” value with Setaria faberi (SETFA) [5] is 0. In the experiment with Zea mays (ZEAMX) [6], the “Control of ZEAMX after pre-emergence application (damage score 0-5)” value was found to be 1. Further, in experiment [7], the “Control of ABUTH after post-emergence application (damage score 0-5)” value amounted to 1. Besides, in experiment [8], the “Control of ECHCG after post-emergence application (damage score 0-5)” value came out at 2. Further, in experiment [9], the “Control of AMARE after post-emergence application (damage score 0-5)” value was 1. For the same compound, the “Control of LOLPE after post-emergence application (damage score 0-5)” value in the experiment with Lolium perenne (LOLPE) [10] turned out to be 1. Moreover, in the experiment with Setaria faberi (SETFA) [11], the “Control of SETFA after post-emergence application (damage score 0-5)” value was determined as 3. In addition, the “Control of ZEAMX after post-emergence application (damage score 0-5)” value with Zea mays (ZEAMX) [12] was 2.

`CC(C)OC(=O)Nc1cc(-c2cncnc2)nn1C(F)F` [Compound A58, isopropyl N-[2-(difluoromethyl)-5-pyrimidin-5-yl-pyrazol-3-yl]carbamate]: the “Control of ABUTH after pre-emergence application (damage score 0-5)” value in [1] is 0. In experiment [2], the “Control of ECHCG after pre-emergence application (damage score 0-5)” value is 1. Also, in [3], the “Control of AMARE after pre-emergence application (damage score 0-5)” value was 0. Moreover, the “Control of LOLPE after pre-emergence application (damage score 0-5)” value with Lolium perenne (LOLPE) [4] is 0. Further, the “Control of SETFA after pre-emergence application (damage score 0-5)” value with Setaria faberi (SETFA) [5] was 2. Further, in the experiment with Zea mays (ZEAMX) [6], the “Control of ZEAMX after pre-emergence application (damage score 0-5)” value was determined as 0. The “Control of ABUTH after post-emergence application (damage score 0-5)” value in [7] is listed as 0. Moreover, the “Control of ECHCG after post-emergence application (damage score 0-5)” value in experiment [8] worked out at 1. For the same compound, the “Control of AMARE after post-emergence application (damage score 0-5)” value in [9] was found to be 0. Moreover, in the experiment with Lolium perenne (LOLPE) [10], the “Control of LOLPE after post-emergence application (damage score 0-5)” value is recorded as 1. Besides, the “Control of SETFA after post-emergence application (damage score 0-5)” value in the experiment with Setaria faberi (SETFA) [11] is given as 3. Moreover, the “Control of ZEAMX after post-emergence application (damage score 0-5)” value with Zea mays (ZEAMX) [12] worked out at 1.

Take `CC(C)OC(=O)N(C)c1cc(-c2cncnc2)nn1C(F)F` [Compound A59, isopropyl N-[2-(difluoromethyl)-5-pyrimidin-5-yl-pyrazol-3-yl]-N-methyl-carbamate]: the “Control of ABUTH after pre-emergence application (damage score 0-5)” value in experiment [1] was determined as 0. Besides, the “Control of ECHCG after pre-emergence application (damage score 0-5)” value in experiment [2] is recorded as 2. Moreover, in [3], the “Control of AMARE after pre-emergence application (damage score 0-5)” value is recorded as 0. Besides, the “Control of LOLPE after pre-emergence application (damage score 0-5)” value with Lolium perenne (LOLPE) [4] came to 0. For the same compound, the “Control of SETFA after pre-emergence application (damage score 0-5)” value with Setaria faberi (SETFA) [5] turned out to be 3. Further, the “Control of ZEAMX after pre-emergence application (damage score 0-5)” value in the experiment with Zea mays (ZEAMX) [6] is reported as 2. In addition, the “Control of ABUTH after post-emergence application (damage score 0-5)” value in [7] turned out to be 0. Besides, the “Control of ECHCG after post-emergence application (damage score 0-5)” value in [8] turned out to be 1. Also, the “Control of AMARE after post-emergence application (damage score 0-5)” value in [9] is 0. Further, the “Control of LOLPE after post-emergence application (damage score 0-5)” value in the experiment with Lolium perenne (LOLPE) [10] amounted to 0. For the same compound, the “Control of SETFA after post-emergence application (damage score 0-5)” value in the experiment with Setaria faberi (SETFA) [11] was 3. Moreover, the “Control of ZEAMX after post-emergence application (damage score 0-5)” value in the experiment on Zea mays (ZEAMX) [12] is on record as 2.

Turning to `CN(C(=O)OC(C)(C)C)c1cn(-c2cccnc2)nc1Cl` [Compound A60, tert-butyl N-[3-chloro-1-(3-pyridyl)pyrazol-4-yl]-N-methyl-carbamate], the “Control of ABUTH after pre-emergence application (damage score 0-5)” value in [1] is reported as 0. Also, the “Control of ECHCG after pre-emergence application (damage score 0-5)” value in experiment [2] turned out to be 2. Further, the “Control of AMARE after pre-emergence application (damage score 0-5)” value in experiment [3] was determined as 1. For the same compound, in the experiment with Lolium perenne (LOLPE) [4], the “Control of LOLPE after pre-emergence application (damage score 0-5)” value was 0. Also, in the experiment with Setaria faberi (SETFA) [5], the “Control of SETFA after pre-emergence application (damage score 0-5)” value stood at 4. Besides, in the experiment with Zea mays (ZEAMX) [6], the “Control of ZEAMX after pre-emergence application (damage score 0-5)” value was determined as 2. The “Control of ABUTH after post-emergence application (damage score 0-5)” value in experiment [7] is 2. For the same compound, the “Control of ECHCG after post-emergence application (damage score 0-5)” value in experiment [8] is on record as 4. Further, the “Control of AMARE after post-emergence application (damage score 0-5)” value in [9] came to 3. Moreover, the “Control of LOLPE after post-emergence application (damage score 0-5)” value in the experiment on Lolium perenne (LOLPE) [10] came to 2. The “Control of SETFA after post-emergence application (damage score 0-5)” value with Setaria faberi (SETFA) [11] is listed as 4. Further, in the experiment with Zea mays (ZEAMX) [12], the “Control of ZEAMX after post-emergence application (damage score 0-5)” value was determined as 3.
